According to patent publication US20240132431A1, “METHOD FOR ALKYLATING ACIDIC FUNCTIONAL GROUP” (Chugai Seiyaku Kabushiki Kaisha, priority 2021, published 2024):
Blank lines part the entries; values can stand above or below the compound they belong to.

Biological target: T1, Bcl-2 protein (Recombinant Human Bcl-2 Protein) (Homo sapiens, UniProt P10415)
T1 construct: purchased Novus NBP2-34889
Experiment: Binding evaluation of mixture library compounds to Bcl-2 using AS-MS (affinity selection mass spectrometry)
Conditions: for ASMS ratio (%) n = 1 / ASMS ratio (%) n = 2: ASMS Ratio(%)=(A−C)/B×100; for ASMS ratio (%) n = 1: replicate n = 1; for ASMS ratio (%) n = 2: replicate n = 2
In short: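 ASMS Ratio (%) was calculated as (A−C)/B×100, where A is the protein sample after SEC, B the protein-free sample without SEC and C the protein-free sample after SEC. Each compound was at […] in a 1200-member pool with 20 μM Bcl-2, incubated 1 h at 23° C.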

[1] = AS-MS on the mixture of 1200 library compounds
[2] = AS-MS, mixture of 1200 compounds, Bcl-2

T1 sequence (P10415 whole entry): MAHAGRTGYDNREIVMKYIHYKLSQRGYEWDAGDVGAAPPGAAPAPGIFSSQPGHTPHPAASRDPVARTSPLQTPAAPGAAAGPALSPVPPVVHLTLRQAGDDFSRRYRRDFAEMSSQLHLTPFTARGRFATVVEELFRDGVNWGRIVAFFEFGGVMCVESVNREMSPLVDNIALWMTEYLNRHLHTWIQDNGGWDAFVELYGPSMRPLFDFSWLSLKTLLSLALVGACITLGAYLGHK

Compound: CCOc1cncc(-c2cc(CN3CCN(c4ccc(C(=O)N(CC)CC)cc4)CC3)cc(OC(C)C)c2)c1 [B4J058-01, 4-[4-[[3-(5-Ethoxypyridin-3-yl)-5-propan-2-yloxyphenyl]methyl]piperazin-1-yl]-N,N-diethylbenzamide]
- ASMS ratio (%) n = 1 [1]: 2.2%
- ASMS ratio (%) n = 2 [1]: 0.5%

Compound: 6-[4-[[4-(5-Ethoxypyridin-3-yl)-2,6-dimethoxyphenyl]methyl]piperazin-1-yl]-N-propylpyridazine-3-carboxamide [B1M023-01]
- ASMS ratio (%) n = 1 [2]: 1.4%
- ASMS ratio (%) n = 2 [2]: −3.0%

Compound: 4-[4-[[4-(5-Ethoxypyridin-3-yl)naphthalen-1-yl]methyl]piperazin-1-yl]-N-propylbenzamide [B1M046-01]
- ASMS ratio (%) n = 1 [2]: 0.7%
- ASMS ratio (%) n = 2 [2]: −1.2%

Compound: CCOc1cncc(-c2ccc(C(=O)N3CCN(c4ccc(C(=O)NCC56CC7CC(CC(C7)C5)C6)nn4)CC3)cc2F)c1 [B1A006-01, N-(1-Adamantylmethyl)-6-[4-[4-(5-ethoxypyridin-3-yl)-3-fluorobenzoyl]piperazin-1-yl]pyridazine-3-carboxamide]
- ASMS ratio (%) n = 1 [2]: 2.4%
- ASMS ratio (%) n = 2 [2]: 9.1%

Compound: CCOc1cccc(-c2ccc(C(=O)N3CCN(c4ccc(C(=O)NCC56CC7CC(CC(C7)C5)C6)cc4)CC3)c3ccccc23)c1 [B1A035-01, N-(1-Adamantylmethyl)-4-[4-[4-(3-ethoxyphenyl)naphthalene-1-carbonyl]piperazin-1-yl]benzamide]
- ASMS ratio (%) n = 1 [2]: 14.9%
- ASMS ratio (%) n = 2 [2]: −7.0%

Compound: 4-[4-[[3-Ethoxy-5-(5-ethoxypyridin-3-yl)phenyl]methyl]piperazin-1-yl]-N-propylbenzamide [B1M011-01]
- ASMS ratio (%) n = 1 [2]: 18.6%
- ASMS ratio (%) n = 2 [2]: 7.5%

Next, values leading:

- ASMS ratio (%) n = 1 [1]: 8.9%
- ASMS ratio (%) n = 2 [1]: 3.0%
Compound: CCOc1cccc(-c2cc(C(=O)N3CCN(c4ccc(C(=O)N(C)CC56CC7CC(CC(C7)C5)C6)nn4)CC3)cc(C(C)(C)C)c2)c1 [B3A015-01, N-(1-Adamantylmethyl)-6-[4-[3-tert-butyl-5-(3-ethoxyphenyl)benzoyl]piperazin-1-yl]-N-methylpyridazine-3-carboxamide]

- ASMS ratio (%) n = 1 [1]: −42.7%
- ASMS ratio (%) n = 2 [1]: −0.2%
Compound: CCOc1cncc(-c2ccc(C(C)N3CCN(c4ccc(C(=O)Nc5ccc(OC)cc5)cc4)CC3)cc2)c1 (stereo not drawn) [B1O098-01, 4-[4-[1-[4-(5-Ethoxypyridin-3-yl)phenyl]ethyl]piperazin-1-yl]-N-(4-methoxyphenyl)benzamide]

- ASMS ratio (%) n = 1 (AS-MS, mixture library, Bcl-2): 0.0%
- ASMS ratio (%) n = 2 (AS-MS, mixture library, Bcl-2): 0.0%
Compound: CCOc1cncc(-c2cc(C(=O)N3CCN(c4ccc(C(=O)NS(=O)(=O)CC56CC7CC(CC(C7)C5)C6)cc4)CC3)cc(C(F)(F)F)c2)c1 [B2A040-01, N-(1-Adamantylmethylsulfonyl)-4-[4-[3-(5-ethoxypyridin-3-yl)-5-(trifluoromethyl)benzoyl]piperazin-1-yl]benzamide]

- ASMS ratio (%) (n = 1): 0.0%
- ASMS ratio (%) (n = 2): 0.0%
Compound: CCOc1cccc(-c2cc(CN3CCN(c4ccc(C(=O)NS(C)(=O)=O)nn4)CC3)cc(OC(C)C)c2)c1 [B2I083-01, 6-[4-[[3-(3-Ethoxyphenyl)-5-propan-2-yloxyphenyl]methyl]piperazin-1-yl]-N-methylsulfonylpyridazine-3-carboxamide]

- ASMS ratio (%) (n = 1): 15.8%
- ASMS ratio (%) (n = 2): 13.5%
Compound: CCOc1cncc(-c2ccccc2CCC(=O)N2CCN(c3ccc(C(=O)NS(=O)(=O)c4ccc(NCCSc5ccccc5)c(C(F)(F)F)c4)nn3)CC2)c1 [B2R012-01, 6-[4-[3-[2-(5-Ethoxypyridin-3-yl)phenyl]propanoyl]piperazin-1-yl]-N-[4-(2-phenylsulfanylethylamino)-3-(trifluoromethyl)phenyl]sulfonylpyridazine-3-carboxamide]

- ASMS ratio (%) n = 1 (AS-MS, mixture library, Bcl-2): −0.7%
- ASMS ratio (%) n = 2 (AS-MS, mixture library, Bcl-2): 1.5%
Compound: CCOc1cncc(-c2ccc(C(=O)N3CCN(c4ccc(C(=O)NS(C)(=O)=O)cc4)CC3)c3ccccc23)c1 [B2I036-01, 4-[4-[4-(5-Ethoxypyridin-3-yl)naphthalene-1-carbonyl]piperazin-1-yl]-N-methylsulfonylbenzamide]
